Consider one compound from patent US20240165129A1, “METHODS OF TREATING PAIN AND DEPRESSION” (priority 2022, published 2024).

In assay [1] the test system is mice (depression-like behavior). Kind of assay: Tail suspension test. It is filed as in vivo, mouse. How it is done:
This test is performed by the Tennessee Mouse Genome Consortium (tnmouse.org/neuromutagenesis/behavioral). Mice are suspended by the tail from a ledge ˜60 cm from the ground with adhesive tape. Immobility is defined as the absence of movement and is scored over a 6—min trial.

Assay [2] addresses T1, homomeric ASIC1a channels (Homo sapiens, UniProt P78348).
T1 construct: expressed in transfected cells
T1 sequence (P78348 1-528): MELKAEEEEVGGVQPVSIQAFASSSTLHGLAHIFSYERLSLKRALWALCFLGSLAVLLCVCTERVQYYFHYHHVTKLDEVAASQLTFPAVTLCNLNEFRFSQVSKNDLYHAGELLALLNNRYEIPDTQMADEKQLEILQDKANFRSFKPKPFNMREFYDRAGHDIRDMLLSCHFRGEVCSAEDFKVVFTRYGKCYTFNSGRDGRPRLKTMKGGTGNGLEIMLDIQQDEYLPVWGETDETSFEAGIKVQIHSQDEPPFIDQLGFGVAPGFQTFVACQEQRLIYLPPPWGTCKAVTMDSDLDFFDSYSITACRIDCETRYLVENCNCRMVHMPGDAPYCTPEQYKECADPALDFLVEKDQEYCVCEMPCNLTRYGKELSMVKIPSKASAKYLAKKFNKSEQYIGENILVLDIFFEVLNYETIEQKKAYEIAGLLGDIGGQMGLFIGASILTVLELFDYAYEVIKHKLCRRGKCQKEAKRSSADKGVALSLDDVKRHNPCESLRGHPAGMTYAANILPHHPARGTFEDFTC
In kind it is cell-based.

Assay [3] deals with Sprague-Dawley rats (CFA-induced pain). Kind of assay: CFA rat pain model, paw pressure (vocalization) and mechanical hypersensitivity tests.
Procedure: Male Sprague-Dawley rats (150-175 g) are acclimatized for a week before testing. Rats are housed in a controlled room with a 12-hour light/dark cycle, with free access to food and water. Rats are housed 4 per cage except after the bilateral implantation experiment (2 per cage and individually following surgery). Pain is induced by a single unilateral intra-articular injection of 50 μl complete Freund's adjuvant (CFA, heat-killed Mycobacterium 2 mg/ml) in the right hindpaw under isoflurane (4%) anaesthesia. Sham rats are injected with 50 μl of vehicle in the same conditions. Behavioral experiments are performed 14-16 days after pain induction, when rats weighed between 260 to 320 g. […]
The effect of Triol (0.05 μg/0.5 μl/side) 15 min before the behavioral tests is evaluated in sham and Pain rats, 14 to 16 days following pain induction. The behavior of each rat is then assessed in the different tests (i.e., social interaction or elevated plus maze for anxiety, and paw pressure or paw immersion for pain, see below).
Mechanical hypersensitivity in sham and Pain animals is assessed with an analgesiometer (paw pressure test). Nociceptive thresholds are measured by applying increased pressure to the ipsilateral ankle of unrestrained rats until a vocalisation is obtained. […] Vocalization threshold is assessed at baseline and 15, 25 and 45 min following Triol, mambalgin-1 or saline administration.
Assay [4] concerns the target T2, heteromeric ASIC1a/2a channels (UniProt P78348+Q62962).
T2 sequence (P78348 1-528): T1 sequence (P78348 1-528)
T2 sequence (Q62962 1-512): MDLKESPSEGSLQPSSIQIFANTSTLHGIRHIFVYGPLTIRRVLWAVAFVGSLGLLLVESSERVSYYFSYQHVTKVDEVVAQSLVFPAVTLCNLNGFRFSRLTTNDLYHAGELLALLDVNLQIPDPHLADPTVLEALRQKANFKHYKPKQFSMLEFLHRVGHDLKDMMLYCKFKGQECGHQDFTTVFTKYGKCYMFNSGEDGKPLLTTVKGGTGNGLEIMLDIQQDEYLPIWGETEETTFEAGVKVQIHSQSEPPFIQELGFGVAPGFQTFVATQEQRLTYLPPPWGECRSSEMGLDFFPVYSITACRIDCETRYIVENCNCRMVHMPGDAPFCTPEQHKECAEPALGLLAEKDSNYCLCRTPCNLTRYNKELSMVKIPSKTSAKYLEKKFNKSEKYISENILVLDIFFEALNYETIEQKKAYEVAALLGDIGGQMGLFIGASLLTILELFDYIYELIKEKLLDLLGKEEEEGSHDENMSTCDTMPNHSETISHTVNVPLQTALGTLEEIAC
The settings on record: Triol 10 μM, PcTx-1 insensitive cells, pH 6.0, n=4.
Procedure: (§1) ASIC currents were recorded using patch-clamp techniques. Pipette solution contained (mM): 140 CsF, 1 CaCl2, 2 MgCl2, 11 EGTA, 2 tetraethylammonium chloride, 10 HEPES and 4 MgATP, pH 7.3 adjusted with CsOH, 290-300 mOsm. Extracellular Fluid (ECF) contained (mM): 140 NaCl, 5.4 KCl, 2 CaCl2, 1 MgCl2, 10 glucose, and 10 HEPES (320-330 mOsm). A multi-barrel perfusion system (SF-77 Warner Instruments, Hamden, CT) was used to obtain a rapid exchange of ECFs. Currents were recorded with Axopatch 200B amplifier, filtered at 2 kHz, and digitized at 5 kHz using Digidata 1332A. ASIC currents were induced by rapid perfusion of the cells with acidic ECF for 4 seconds. Unless otherwise stated, cells were clamped at a holding potential of −60 mV. […] Data were excluded for statistical analysis when access resistance was >10 MΩ or leak current was >100 pA.
Only the GFP-positive cells were recorded. The GFP-positive CHO-1a cells may express a mix of homomeric ASIC1a, ASIC2a, or heteromeric ASIC1a/2a channels. Since homomeric ASIC2a channels are not activated at pH 6.0 37, the ASIC currents activated at pH 6.0 might be due to the activation of ASIC1a or ASIC1a/2a channels.

For assay [5], the system named is mice (depression-like behavior). Put plainly: Forced swim test. In kind it is in vivo, mouse.
A further assay deals with stroke. The settings on record: in vivo; cited from earlier work.
For the next assay, the target named is T3, homomeric ASIC3 (Rattus norvegicus, UniProt O35240).
T3 sequence (O35240 1-533): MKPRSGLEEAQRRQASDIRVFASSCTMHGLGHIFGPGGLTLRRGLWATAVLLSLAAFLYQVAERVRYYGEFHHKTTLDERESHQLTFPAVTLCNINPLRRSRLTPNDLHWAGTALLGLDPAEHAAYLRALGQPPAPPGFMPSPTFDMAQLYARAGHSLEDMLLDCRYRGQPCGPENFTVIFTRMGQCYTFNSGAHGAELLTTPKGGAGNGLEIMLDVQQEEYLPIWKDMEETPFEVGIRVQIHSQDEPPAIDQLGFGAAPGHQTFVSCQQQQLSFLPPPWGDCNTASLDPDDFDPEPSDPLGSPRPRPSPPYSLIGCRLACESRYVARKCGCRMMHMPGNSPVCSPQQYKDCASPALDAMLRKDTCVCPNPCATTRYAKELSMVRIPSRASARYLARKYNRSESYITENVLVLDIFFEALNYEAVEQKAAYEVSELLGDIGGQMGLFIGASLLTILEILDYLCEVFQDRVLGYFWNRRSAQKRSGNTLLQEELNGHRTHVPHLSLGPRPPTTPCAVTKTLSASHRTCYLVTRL
Kind of assay: Patch-clamp recording of ASIC3 currents in CHO cells with transient expression. (The patch-clamp technique gives a direct electrical read-out from membranes.)

Assay [6] relates to corticosterone-induced depression-like behaviors in mice. Put plainly: Mouse model of depression induced by repeated corticosterone injections. It is filed as in vivo. The settings on record: 12 mg/kg i.p. daily, corticosterone 40 mg/kg i.p. for 21 days. How it is done:
Based on the fact that Triol inhibits ASIC1a, Triol can have anti-depression activity. […] A mouse model of depression induced by repeated corticosterone injections is used. Depression-like behaviors are induced by repeated administration of corticosterone (40 mg/kg, i.p.), once a day for 21 days in mice. Mice arerandomly assigned to 4 experimental groups (n=10/group). Control, corticosterone, corticosterone +Vehicle (20% HP-β-CD) and corticosterone+ Triol (12 mg/kg, i.p.). Triol is administered daily. The sucrose consumption test, open-field test (OFT), tail suspension test (TST), and forced swimming test (FST) are used to evaluate the therapeutic effect of Triol.

The test system of assay [7] is C57BL/6J mice (inflammatory pain). Put plainly: Carrageenan-evoked inflammatory pain, von Frey paw withdrawal. The settings on record: 12 mg/kg IV, 2 h after 2% carrageenan intraplantar. It is filed as in vivo, mouse. How it is done: Triol inhibits the above ASICs, so Triol has an analgesic effect. […] Experiments are performed on 12-week-old (20-25 g) C57BL/6J mice following the guidelines of the International Association for the Study of Pain. Inflammatory pain is evoked by intraplantar injection in the left hindpaw of 2% carrageenan (20 μl). After 2 h, Triol (12 mg/kg) or vehicle (20% HP-β-CD) is injected IV. The mechanical withdrawal threshold on the plantar surface of the hindpaw is measured with a set of von Frey hairs in the range of 0.4-26 gm (0.4, 1.2, 2, 4, 6, 8, 10, 15, 26 gm).

Read-outs that look alike come from different tables or passages of the source.

Procedure for homomeric ASIC3: Chinese hamster ovary (CHO) cells were cultured in F12-K medium (Invitrogen) plus 10% fetal bovine serum, 50 units/nal penicillin, and 50 μg/m1 streptomycin. At ˜50% confluence, CHO cells were co-transfected with cDNAs for rat ASIC1β, ASIC2a, or ASIC3, and that for GFP. GFP-positive cells were used for electrophysiological recordings 24-72 h after transient transfection.
as §1
Therefore, the study used pH 6.0 and 4.5 to activate ASIC1β and ASIC2a currents, respectively. […]

As a reminder, the inhibition is the drop in the measured response relative to a control, in per cent. For `CC(C)CCC[C@@H](C)[C@H]1CC[C@H]2[C@@H]3C[C@@H](O)[C@@]4(O)C[C@@H](O)CC[C@]4(C)[C@H]3CC[C@]12C` [Triol, cholestane-3β, 5α, 6β-triol], in assay [1], the “depression-like behavior in the tail suspension test” value was “decreased levels of depression-like behavior”. The inhibition at 1 µM in [2] (1 μM Triol, within 5 minutes of application, pH drop 7.4 to 6.0, n=5, read-out: inhibition of ASIC1a currents) is approximately 20%. Moreover, the inhibition at 10 µM was approximately 40% in assay [2] (10 μM Triol, within 5 minutes of application, pH drop 7.4 to 6.0, n=5, read-out: inhibition of ASIC1a currents); approximately 40% in [2] (10 μM, once/one min, within 5 min of recording, read-out: inhibition of ASIC current, higher stimulatory frequency); approximately 20% in assay [2] (10 μM, once/two min, within 5 min of recording, read-out: inhibition of ASIC1a currents, lower stimulatory frequency); approximately 23% at homomeric ASIC3 (pH 5.5, read-out: inhibition of ASIC3 peak current component); approximately 54% on homomeric ASIC3 (pH 5.5, read-out: inhibition of ASIC3 sustained current component). The “reversibility of ASIC1a inhibition” value in assay [2] (after 30 min washout (data not shown)) is given as “irreversible”. The “effects in the pain tests relative to commonly used pain relief drugs” value in assay [3] is “independent of and additive to”. Moreover, the “pain-related behavior in vocalization and mechanical hypersensitivity tests” value in assay [3] is “decreased levels of pain-related behavior”. In assay [4], the “effect on PcTx-1 insensitive ASIC currents” value is “inhibited these currents”. The “depression-like behavior in the forced swim test” value in assay [5] is on record as “decreased levels of depression-like behavior”. Besides, the “therapeutic time window for stroke treatment” value in the assay with stroke is listed as “at least 4 h”. Moreover, the “antidepressant activity (sucrose consumption, OFT, TST, FST)” value in assay [6] is “alleviating corticosterone-induced depression-like behaviors”. Also, in assay [7], the “latency for the paw withdrawal reflex” value is recorded as “increases the latency for the paw withdrawal reflex”.
